Results taken from US6410575B1, “Viral treatment” (The Procter & Gamble Company, priority 1999, dated 2002).
Several values for one entry are separate records, joined by “and”; a condition that tells them apart may be missing. Equal values may be shown once.

Experiments:
Format in all cases: cell-based
[1] = tested on: Human Herpes Virus 8 (HHV8); assay: Kaposi's sarcoma / HHV8 DNA copy number in TPA-induced BCBL-1 cells
Procedure: The DNA copy number and the toxicity value were measured and compared with Cidofovir. Kaposi's sarcoma (KS) is a cancer that is often found in people with weak immune systems, such as those taking immunosuppressants or those with AIDS. The exact nature of the disease is uncertain, but it is almost always found in association with HHV8.

HIV-2 virus, CEMROD = assay: In vitro screening test against HIV-2, reverse transcriptase activity; set-up: Reverse Transcriptase Activity, sample / Reverse Transcriptase Activity, average: unit not given here
From the text: The results of one test are shown below

CEMROD = assay: Toxicity values in the HIV-2 screening test; set-up: Toxicity Values, sample / Toxicity Values, average: unit not given here
From the text: (§1) Toxicity quantification involves the XTT-based evaluation. Assays were designed to characterize the long term effects of the compounds on virus production and to characterize the longer term effects of the compounds on virus production from chronically HIV infected cells.

HIV-1 cell line, CEMSKI = assay: Long term in vitro study, CEMSKI
Procedure: as §1
CEM-SS cells chronically infected with HIV isolate, for example SKI (CEM-SKI) are cultured in RPMI1640 tissue culture medium supplemented with 10% fetal bovine serum and antibiotics. […] CEM-SKI or other infected cells with no added drug are used as the control cells.
Cells are allowed to grow to a density of approximately 1×10^6 cells/ml and are then passaged at a 1:10 dilution. […] The drug concentration in the flask is then increased two-fold and the cells maintained as above.
The cell populations contain integrated copies of the HIV genome and constitutively produce HIV at relatively high levels or are latently infected and only produce virus after stimulation with phorbol esters, tumor necrosis factor or IL6(U1 and ACH2). Reductions in virus products were observed when quantifying supernatant reverse transcriptase activity.
The results with CEMSKI cells was reported at weekly intervals.
The CEMSKI cell like is a viral strain of the CEMSS cell line.

NC(=S)Nc1nsc(-c2ccccc2)n1 was tested, and the “% virus control” value ([1]; 0.64 μM) was 79.1%, the “DNA Copy Number (per 3 μl), average” value ([1]; 0.64 μM) was 12198.1 per 3 μl and the “DNA Copy Number (per 3 μl), sample” value ([1]; 0.64 μM) was 1200.5 per 3 μl and 1258.4 per 3 μl and 1198.4 per 3 μl. The “% virus control” value ([1]; 2 μM) was 71.2%, the “DNA Copy Number (per 3 μl), average” value ([1]; 2 μM) was 1096.9 per 3 μl and the “DNA Copy Number (per 3 μl), sample” value ([1]; 2 μM) was 1100.2 per 3 μl and 1000.7 per 3 μl and 1189.7 per 3 μl. For the same compound, the “% virus control” value ([1]; 6.4 μM) was 67.0%, the “DNA Copy Number (per 3 μl), average” value ([1]; 6.4 μM) was 1032.6 per 3 μl and the “DNA Copy Number (per 3 μl), sample” value ([1]; 6.4 μM) was 1003.5 per 3 μl and 1084.5 per 3 μl and 1009.7 per 3 μl. For the same compound, the “% virus control” value ([1]; 20 μM) was 55.8%, the “DNA Copy Number (per 3 μl), average” value ([1]; 20 μM) was 860.2 per 3 μl and the “DNA Copy Number (per 3 μl), sample” value ([1]; 20 μM) was 747.8 per 3 μl and 841.6 per 3 μl and 991.2 per 3 μl. For the same compound, the “% virus control” value ([1]; 64 μM) was 48.9%, the “DNA Copy Number (per 3 μl), average” value ([1]; 64 μM) was 753.0 per 3 μl and the “% virus control” value ([1]; 200 μM) was 26.6%. The “DNA Copy Number (per 3 μl), average” value ([1]; 200 μM) was 410.7 per 3 μl, the TI ([1]; HHV8, BCBL-1 cells) was “TI = 1.8” and the IC50 ([1]; Human gammaherpesvirus 8, BCBL1, HHV8 DNA copy number, BCBL-1 cells) was 56.8 µM. For the same compound, the “% virus control” value (HIV-2 virus, CEMROD; 0.32 μg/ml) was 113.2%, the “Reverse Transcriptase Activity, average” value (HIV-2 virus, CEMROD; 0.32 μg/ml) was 5451 and the “Reverse Transcriptase Activity, sample” value (HIV-2 virus, CEMROD; 0.32 μg/ml) was 4664 and 6972 and 4717. The “% virus control” value (HIV-2 virus, CEMROD; 1 μg/ml) was 95.5%, the “Reverse Transcriptase Activity, average” value (HIV-2 virus, CEMROD; 1 μg/ml) was 4601 and the “Reverse Transcriptase Activity, sample” value (HIV-2 virus, CEMROD; 1 μg/ml) was 4005 and 4407 and 5392. The “% virus control” value (HIV-2 virus, CEMROD; 1.0 μg/ml) was 66.6%, the “Reverse Transcriptase Activity, average” value (HIV-2 virus, CEMROD; 1.0 μg/ml) was 3208 and the “Reverse Transcriptase Activity, sample” value (HIV-2 virus, CEMROD; 1.0 μg/ml) was 3001 and 3077 and 3547. For the same compound, the “% virus control” value (HIV-2 virus, CEMROD; 3.2 μg/ml) was 74.9%, the “Reverse Transcriptase Activity, average” value (HIV-2 virus, CEMROD; 3.2 μg/ml) was 3606 and the “Reverse Transcriptase Activity, sample” value (HIV-2 virus, CEMROD; 3.2 μg/ml) was 4166 and 3318 and 3334. For the same compound, the “% virus control” value (HIV-2 virus, CEMROD; 32 μg/ml) was 36.4%, the “Reverse Transcriptase Activity, average” value (HIV-2 virus, CEMROD; 32 μg/ml) was 1753 and the “Reverse Transcriptase Activity, sample” value (HIV-2 virus, CEMROD; 32 μg/ml) was 1832 and 1550 and 1876. The “% virus control” value (HIV-2 virus, CEMROD; 100 μg/ml) was 1.2%, the “Reverse Transcriptase Activity, average” value (HIV-2 virus, CEMROD; 100 μg/ml) was 57 and the “Reverse Transcriptase Activity, sample” value (HIV-2 virus, CEMROD; 100 μg/ml) was 72 and 48 and 52. The “% cell control” value (CEMROD; 0.32 μg/ml) was 101.6%, the “Toxicity Values, average” value (CEMROD; 0.32 μg/ml) was 1.197 and the “Toxicity Values, sample” value (CEMROD; 0.32 μg/ml) was 1.181 and 1.206 and 1.203. For the same compound, the “% cell control” value (CEMROD; 1 μg/ml) was 90.9%, the “Toxicity Values, average” value (CEMROD; 1 μg/ml) was 1.071 and the “Toxicity Values, sample” value (CEMROD; 1 μg/ml) was 1.055 and 1.093 and 1.066. The “% cell control” value (CEMROD; 1.0 μg/ml) was 75.6%, the “Toxicity Values, average” value (CEMROD; 1.0 μg/ml) was 0.891 and the “Toxicity Values, sample” value (CEMROD; 1.0 μg/ml) was 0.871 and 0.881 and 0.921. For the same compound, the “% cell control” value (CEMROD; 3.2 μg/ml) was 83.1%, the “Toxicity Values, average” value (CEMROD; 3.2 μg/ml) was 0.979 and the “Toxicity Values, sample” value (CEMROD; 3.2 μg/ml) was 0.987 and 0.984 and 0.965. For the same compound, the “% cell control” value (CEMROD; 32 μg/ml) was 43.2%, the “Toxicity Values, average” value (CEMROD; 32 μg/ml) was 0.509 and the “Toxicity Values, sample” value (CEMROD; 32 μg/ml) was 0.518 and 0.491 and 0.517. For the same compound, the “% cell control” value (CEMROD; 100 μg/ml) was 9.8%, the “Toxicity Values, average” value (CEMROD; 100 μg/ml) was 0.115 and the “Toxicity Values, sample” value (CEMROD; 100 μg/ml) was 0.113 and 0.117 and 0.115. For the same compound, the “virus production (supernatant reverse transcriptase activity)” value (from here on “virus production”) (HIV-1 cell line, CEMSKI; 7 μg/ml, day 4) was 6593, the “virus production” value (HIV-1 cell line, CEMSKI; 7 μg/ml, day 11) was 8676 and the “virus production” value (HIV-1 cell line, CEMSKI; 7 μg/ml, day 18) was 10912. For the same compound, the “virus production” value (HIV-1 cell line, CEMSKI; 7 μg/ml, day 25) was 9356, the “virus production” value (HIV-1 cell line, CEMSKI; 7 μg/ml, day 32) was 8803 and the “virus production” value (HIV-1 cell line, CEMSKI; 7 μg/ml, day 39) was 6655. For the same compound, the “virus production” value (HIV-1 cell line, CEMSKI; 7 μg/ml, day 46) was 8280, the “virus production” value (HIV-1 cell line, CEMSKI; 7 μg/ml, day 53) was 7549 and the “virus production” value (HIV-1 cell line, CEMSKI; 15 μg/ml, day 4) was 6815. For the same compound, the “virus production” value (HIV-1 cell line, CEMSKI; 15 μg/ml, day 11) was 8202.
